Data taken from patent US8716480B2, “7-aryl-1,2,4-triazolo[4,3-a]pyridine derivatives and their use as positive allosteric modulators of mGluR2 receptors” (Janssen Pharmaceuticals, Inc., priority 2009, dated 2014).
Where two headings read alike, the source gives them in different places.

Tests used:
male Wiga Wistar rats = assay: Conditioned avoidance response (CAR) test; assay type: in vivo; details: Rattus norvegicus, po, criterion median avoidance latency >8 s, read-out: ED50 CAR-Inh.
From the text: The apparatus consisted of an inner box surrounded by an outer box. The inner box was composed of four walls of transparent, synthetic material (length×width×height: 30×30×30 cm), an open top, and a grid floor made of 15 pairs of iron bars (2 mm diameter; 6 mm inter-bar distance). Odd and even bars were connected with a source of alternative current (1.0 mA; Coulbourn Instruments Solid State Shocker/Distributor), which could be interrupted by a switch. The outer box was composed of the same material (length×width×height: 40×40×36 cm), also with an open top, with a distance of 5 cm between the inner and outer box on all sides. To decrease the amount of environmental stimuli, three walls of the outer box were made non-transparent. The front wall was left transparent to allow the necessary inspection of the animal during the test. The upper edge of the outer and inner box served as a target for the rats on which to jump with fore- and hind-paws, respectively.
From their arrival in the laboratory on the experimental day, male Wiga Wistar rats (230±30 g) were housed in individual cages provided with bedding material.
Latency to avoidance was recorded. The median avoidance response obtained over the three experimental sessions for each rat were used for further calculations.

human mGluR2 receptor = target: T1, human mGluR2 receptor (Homo sapiens, UniProt Q14416); assay: [35S]GTPγS binding assay (PAM); assay type: biochemical; details: in presence of glutamate at predetermined EC20; membranes from CHO cells transfected with human mGluR2; read-out: GTPγS -hR2 PAM pEC50 (converted)
T1 construct: expressed in transfected cells; host or cells: CHO cells (membranes)
T1 sequence (Q14416 19-872): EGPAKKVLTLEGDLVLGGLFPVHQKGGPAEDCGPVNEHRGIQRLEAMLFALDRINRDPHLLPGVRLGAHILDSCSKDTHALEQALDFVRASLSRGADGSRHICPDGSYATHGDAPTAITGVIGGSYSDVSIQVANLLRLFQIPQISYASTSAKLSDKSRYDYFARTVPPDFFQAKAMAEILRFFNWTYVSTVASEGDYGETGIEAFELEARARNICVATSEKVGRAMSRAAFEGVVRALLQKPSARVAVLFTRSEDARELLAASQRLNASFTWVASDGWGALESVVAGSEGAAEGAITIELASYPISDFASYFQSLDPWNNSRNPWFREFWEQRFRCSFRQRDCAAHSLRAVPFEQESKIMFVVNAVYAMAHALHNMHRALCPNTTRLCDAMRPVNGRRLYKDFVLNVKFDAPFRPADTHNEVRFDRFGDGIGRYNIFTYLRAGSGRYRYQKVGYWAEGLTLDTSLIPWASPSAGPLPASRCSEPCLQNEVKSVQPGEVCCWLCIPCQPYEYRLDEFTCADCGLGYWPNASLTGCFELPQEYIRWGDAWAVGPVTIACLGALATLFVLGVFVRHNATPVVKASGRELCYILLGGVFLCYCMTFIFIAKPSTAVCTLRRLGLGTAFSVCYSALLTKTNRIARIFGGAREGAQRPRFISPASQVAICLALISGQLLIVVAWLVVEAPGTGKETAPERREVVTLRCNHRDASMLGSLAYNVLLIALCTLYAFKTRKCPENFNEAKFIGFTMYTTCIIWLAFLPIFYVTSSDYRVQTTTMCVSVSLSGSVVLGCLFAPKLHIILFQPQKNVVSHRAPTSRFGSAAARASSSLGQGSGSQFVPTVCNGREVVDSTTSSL
Method: [^35S]GTPγS binding assay
The [^35S]GTPγS binding assay is a functional membrane-based assay used to study G-protein coupled receptor (GPCR) function whereby incorporation of a non-hydrolysable form of GTP, [^35S]GTPγS (guanosine 5′-triphosphate, labelled with […] ^35S), is measured.
CHO-cells were cultured to pre-confluence and stimulated with 5 mM butyrate for 24 h, prior to washing in PBS, and then collected by scraping in homogenisation buffer (50 mM Tris-HCl buffer, pH 7.4, 4° C.). Cell lysates were homogenized briefly using an ultra-turrax homogenizer. The homogenate was centrifuged at 16,000 RPM (Sorvall RC-5C plus rotor SS-34) for 10 minutes and the supernatant discarded. The pellet was resuspended in 5 mM Tris-HCl, pH 7.4 and centrifuged again (18,000 RPM, 20 min, 4° C.). The final pellet was resuspended in 50 mM Tris-HCl, pH 7.4 and stored at −80° C. in appropriate aliquots before use. Protein concentration was determined by the Bradford method (Bio-Rad, USA) with bovine serum albumin as standard.
Measurement of mGluR2 positive allosteric modulatory activity of test compounds was performed as follows. Test compounds and glutamate were diluted in assay buffer containing 10 mM HEPES acid, 10 mM HEPES salt, pH 7.4, 100 mM NaCl, 3 mM MgCl2 and 10 μM GDP. Human mGlu2 receptor-containing membranes were thawed on ice and diluted in assay buffer supplemented with 14 μg/ml saponin. Membranes were pre-incubated with compound alone or together with a predefined (˜EC20) concentration of glutamate (PAM assay) for 30 min at 30° C. After addition of [^35S]GTPγS (f.c. 0.1 nM) microplates were shaken briefly and further incubated to allow [^35S]GTPγS incorporation on activation (30 minutes, 30° C.). Final assay mixtures contained 7 μg of membrane protein in 10 mM HEPES acid, 10 mM HEPES salt, pH 7.4, 100 mM NaCl, 3 mM MgCl2, 10 μM GDP and 10 μg/ml saponin. Total reaction volume was […] Reactions were terminated by rapid filtration through Unifilter-96 GF/B filter plates (Packard, Meriden, Conn.) using a 96-well Packard filtermate harvester. Filters were washed 6 times with ice-cold 10 mM NaH2PO4/10 mM Na2HPO4, pH 7.4. Filters were then air-dried, and 40 μl of liquid scintillation cocktail (Microscint-O) was added to each well. Membrane-bound radioactivity was counted in a Microplate Scintillation and Luminescence Counter from Packard.
obtained in the presence of EC20 of mGluR2 agonist glutamate to determine positive allosteric modulation (PAM)—were generated using the Lexis software interface (developed at J&J). Data were calculated as % of the control glutamate response, defined as the maximal response that is generated upon addition of glutamate alone. Sigmoid concentration-response curves plotting these percentages versus the log concentration of the test compound were analyzed using non-linear regression analysis. The concentration producing half-maximal effect is then calculated as EC50.
All compounds were tested in presence of mGluR2 agonist, glutamate at a predetermined EC20 concentration, to determine positive allosteric modulation (GTPγS-PAM). pEC50 values were calculated from a concentration-response experiment of at least 10 concentrations.

male NMRI mice [1] = assay: d-Amphetamine-induced hyperlocomotion in mice; assay type: in vivo; details: Mus musculus, d-amphetamine 5 mg/kg s.c., compound administered orally, read-out: ED50 Amp.-Inh.
Method: On the day of experiments, the mice were brought into the procedural room. They were housed individually and allowed to acclimate for at least a half hour prior to testing. Although the studies were conducted during the light cycle (from 8:00 to 16:00 h), the procedure room was only sparsely lit (3 to 30 LUX) to provide better contrast for the video tracking. Local lighting was used for the injection procedures. During each trial, an individual mouse was placed in an open field arena (grey PVC cylinder with a height of 40 cm and a diameter of 22.5 cm). Each arena was placed on an infrared LED (8×8 LEDs)-lit box (white PVC squared box; 40×40 cm^2; height 12.5 cm). Each mouse was placed in the center of the arena and allowed to explore freely for 30 min. After each trial, the arena was cleaned with a wet and subsequently with a dry cleaning cloth. […] Animal behavior was recorded and analyzed using the Noldus Ethovision XT Video Tracking System (Version 3.1; Noldus, Wageningen, The Netherlands). The total distance traveled (cm) was calculated. […]
Test compound or solvent was administered at a pre-defined time before measurement (standard: 30 min) to male NMRI mice that were challenged with d-amphetamine (5 mg/kg, s.c.) 30 min before measurement. Activity was measured for a period of 30 min.

Male mice (C57BL/6) = assay: Reversal of memantine-induced brain activation ([14C]2DG uptake) in mice; assay type: in vivo; details: for L.A.D. (lowest active dose) for significant (p<0.05) reduction of 2DG uptake in the hippocampus compared to memantine response: mice, s.c., memantine 20 mg/kg s.c.
Method: Reversal of Memantine-Induced Brain Activation in Mice NMDA receptor hypofunction is hypothesized to be involved in schizophrenia.
Autoradiographic assessment of radiolabeled [^14C]-2-deoxyglucose ([^14C]2DG) uptake is commonly used to investigate brain activation. In humans, cerebral blood flow is increased in specific brain regions after administration of a subanaesthetic dose of ketamine.
Male mice (C57BL/6, weight 24-28 g, fasted overnight; n=10 animals per group) were treated with vehicle or test compound (s.c.) in randomized order (t=0 min). Memantine (20 mg/kg, s.c.) was injected 30 min later (t=30 min). At t=45 min, [^14C]2DG (0.16 μCi/g) was administered intraperitoneally (i.p.), followed by a 45 min uptake period. Animals were decapitated (t=90 min), plasma glucose levels measured, the brain removed, rapidly frozen and stored at −20° C. until sectioned. Brain sections were exposed together to a precalibrated [^14C]standard on film, which was developed after four days of exposure. Local tissue [^14C]concentration (nCi/mg tissue equivalent—TEQ-) in each region of interest was determined.
Data was analyzed statistically using a two-way ANOVA analysis followed by post-hoc tests (memantine response versus reversal by the compound). The results are shown in table 5 below, expressed as lowest active dose (L.A.D.) required to exert a statistically significant (p<0.05) reduction of 2DG uptake in the hippocampus compared to memantine response.

male NMRI mice [2] = assay: Phencyclidine (PCP)-induced hyperlocomotion in mice; assay type: in vivo; details: Mus musculus; mice; PCP 5 mg/kg s.c.; criterion total distance <5500 counts; not marked as oral; read-out: ED50 PCP-Inh.
Method: On the day of experiments, the mice were brought into the procedural room. They were housed individually and allowed to acclimate for at least a half hour prior to testing. Although the studies were conducted during the light cycle (from 8:00 to 16:00 h), the procedure room was only sparsely lit (3 to 30 LUX) to provide better contrast for the video tracking. Local lighting was used for the injection procedures. During each trial, an individual mouse was placed in an open field arena (grey PVC cylinder with a height of 40 cm and a diameter of 22.5 cm). Each arena was placed on an infrared LED (8×8 LEDs)-lit box (white PVC squared box; 40×40 cm^2; height 12.5 cm). Each mouse was placed in the center of the arena and allowed to explore freely for 30 min. After each trial, the arena was cleaned with a wet and subsequently with a dry cleaning cloth. An infrared sensitive tube camera and a white light source (in arena: 4-7 LUX) were mounted to the ceiling above the observation chamber to record and input activity to a computer. Animal behavior was recorded and analyzed using the Noldus Ethovision XT Video Tracking System (Version 3.1; Noldus, Wageningen, The Netherlands). The total distance traveled (cm) was calculated. Data were then exported to data management systems for further analysis and reporting.
Test compound or solvent was administered at a pre-defined time before measurement (standard: 30 min) to male NMRI mice that were challenged with phencyclidine (PCP; 5 mg/kg, s.c.) 30 min before measurement. Activity was measured for a period of 30 min.

rats = assay: Sleep wake electroencephalography (SW-EEG) in rats; assay type: in vivo; details: 3 mg/kg, p.o.
From the text: Sleep Wake Electroencephalography (SW-EEG) in Rats SW-EEG analyses are a highly sensitive read-out of a compound's central functional activity that may provide additional insight in the potential therapeutic application (i.e. via drug classification fingerprinting). […] Internal efforts have confirmed that this effect is mGlu2 receptor-mediated, i.e. is absent in mGlu2 KO mice. Sleep abnormalities are often associated with CNS disorders; as such, the potential use of mGlu2 modulators could also have benefit in the treatment of CNS disorders in which (REM) sleep aberrations are manifested. More specifically, the combination of a persistent reduction in REM occurrence and an increase in REM latency is one of the key features of the typical SW architecture fingerprint of most clinically active antidepressants.
We investigated the effects of oral administration of compounds according to the invention on SW organization in rats. The mGlu2/3 receptor agonist LY404039 was also evaluated to allow comparison.

SMILES | ED50 (male Wiga Wistar rats; compound administered orally) | ED50 (male Wiga Wistar rats; not marked as oral) | EC50 (human mGluR2 receptor) | ED50 (male NMRI mice [1]) | L.A.D. (lowest active dose) for significant (p<0.05) reduction of 2DG uptake in the hippocampus compared to memantine response (Male mice (C57BL/6)) | ED50 (male NMRI mice [2]) | effect on memantine-induced brain glucose metabolism / 2DG uptake (in words) (Male mice (C57BL/6); mouse brain) | effect on REM sleep (in words) (rats) | melting point
Cc1cc(Oc2ccc(-c3ccn4c(CC5CC5)nnc4c3C(F)(F)F)cc2F)ccn1 [Co. No. 2, 7-[3-Fluoro-4-(2′-methyl-pyridin-4-yloxy)-phenyl]-8-trifluoromethyl-3-cyclopropylmethyl-1,2,4-triazolo[4,3-a]pyridine] | 21.4 mg/kg | 18.7 mg/kg | 50.1 nM | 28.3 mg/kg | 10 mg/kg | 12.3 mg/kg |  |  | 
N[C@@]1(C(=O)O)CS(=O)(=O)[C@H]2[C@H](C(=O)O)[C@H]21 [LY404039, reference compound] |  |  |  |  |  |  | inhibited | affect REM sleep | 
Cc1cc(Oc2ccc(-c3ccn4c(CC(F)(F)F)nnc4c3Cl)cc2F)ccn1 [Co. No. 1, 7-[3-Fluoro-4-(2′-methyl-pyridin-4-yloxy)-phenyl]-8-chloro-3-(2,2,2-trifluoro-ethyl)-1,2,4-triazolo[4,3-a]pyridine] | 21.4 mg/kg | 12.3 mg/kg | 209 nM |  | >10 mg/kg | 18.7 mg/kg |  |  | 130.1 °C
